Results as given in patent US7674454B2, “Enzyme-prodrug therapy for prosthetic joint repair” (Innovata Limited, priority 2004, dated 2010).

Assays:
interface cells [1] = test: NTR/CB1954 cell killing in the presence of, or after transient exposure to, contrast medium; format: cell-based, human; conditions: results not shown
Description: The effect of contrast medium (iotrolan) on HAdV5-transduction of interface cells was investigated with Ad.CMV.LacZ. Transducibility of the cells increases with the concentration of HAdV-5 vector. However, the contrast medium has restraining influence on the transduction efficiency. With higher concentrations of iotrolan, the HAdV-5 vector concentration has less effect on gene transfer efficiency. […] The effect of iotrolan on the transduction is statistically significant (p<0.001). Furthermore, differences between cells from different individuals (n=6) have been observed. To evaluate the effect of contrast medium on cell killing by NTR/CB1954, the previously described experiment for the efficiency of cell killing was repeated in the presence of contrast medium. […] This incompatibility may be due to the presence of iodine within the contrast media. Screening of all available contrast media may allow determination of a contrast medium compatible with viral transduction.
The influence of transient exposure to contrast medium on the transduction of interface cells was investigated. Interface cells were exposed to contrast medium for 0 to 120 minutes and the period between washing away of the contrast medium and performing the NTR/CB1954 cell killing approach was varied. […]

[2] = Djeha et al, 2001; cited from earlier work
interface cells [3] = test: Transduction and cell killing assay: CTL102 infection, then CB1954, WST metabolic activity readout; format: cell-based, human
Procedure: Cell viability was then determined using a metabolic activity assay.
For all experiments described, interface cells were used. Interface tissue was removed from the periprosthetic space during revision-surgery by an orthopedic surgeon and collected in sterile phosphate buffered saline (PBS). Connective tissue and fat were removed thoroughly and the interface tissue was digested for at least two hours at 37° C. using collagenase 1A (1 mg/ml; Sigma, St Louis, Mo., USA). Cells were then harvested by filtering the tissue/collagenase substance through a 200 μm filter (NPBI, Emmer-Compascuum, The Netherlands). The cells were cultured in 75 cm^2 flasks (Cellstar, Greiner, Alphen aan de Rijn, The Netherlands) with Iscove's modified Dulbecco's medium (IMDM; Biowitthaker, Verviers, Belgium), supplemented with glutamax (GibcoBRL, Paisley, UK), penicillin and streptomycin (Boehringer Mannheim, Germany), and 10% fetal calf serum (FCS; GibcoBRL, Paisley, UK) at 37° C. and 5% CO2.
Before each experiment interface cells were detached from the flasks using 0.25% trypsin (GibcoBRL, Paisley, UK). The cells were counted in a bürker counter and death cells were excluded by trypan blue. Cells were seeded in a 96 wells-plate (flat bottom) at a density of 5,000 cells per well. Cells were incubated overnight to allow attachment to the bottom. […]
Hereafter the absorbance at 415 nm was measured.

loosened hip prosthesis = test: Phase-1 clinical study: intra-articular vector, prodrug, then cement injection; conditions: Patient 1, twelve hours after prodrug injection
Procedure: After 48 hours, to allow transduction of target cells and expression of the nitroreductase transgene, CB1954 (at a dosage of 24 mg m^−2) is injected intra-articularly.

interface cells [4] = test: Effect of contrast medium on HAdV-5 transduction of interface cells; format: cell-based, human; conditions: contrast medium concentration of 50%, 4 hours; p<0.001
Procedure: Interface cells were seeded in 96-wells plates. After overnight incubation cells were infected with Ad.CMV.LacZ (concentrations of 0, 25, 100, and 200 pfu/cell) in IMDM/20% FCS, 50 μl per well. Fifty μl Iotrolan (Isovist) in 0.9% NaCl was added in concentrations of 0, 25, 50, and 100%. (When diluted in the culture medium these concentrations decreased to 0, 12.5, 25, and 50%.) Four hours after infection, the cells were washed twice with IMDM and incubated for the rest of the day in IMDM/10% FCS at 37° C. and 5% CO2. The Ad.CMV.LacZ transduced cells were cultured for three days after removal of the vector and contrast medium. Subsequently, the cells were fixed and stained for β-galactasidase activity. The transduction rate was assessed as described above.

interface cells [5] = test: Effect of contrast medium on interface cells, WST-1 viability; format: cell-based, human; conditions: 4 hours exposure, 0-50% contrast medium, viability after 3 more days; p=0.563
Procedure: Interface cells were seeded in 96-wells plates. Into each well 50 μl of IMDM/20% FCS and 50 μl of a solution containing contrast medium and 0.9% NaCl in various concentrations (0, 12.5, 25, and 50% contrast medium) were added. The contrast medium used was the low-osmolarity, nonionic dimer iotrolan (Isovist; Schering, Berlin, Germany). After four hours of exposure to the contrast medium, the cells were washed twice and incubated in IMDM/10% FCS. The cells were cultured for three more days, changing the culture medium every day. On day four, cell viability was determined with the WST-1 cell viability assay kit (Roche, Mannheim, Germany) according to the manufacturers protocol.

SMILES	cell killing by NTR/CB1954 (interface cells [1])	tolerability in man [2]	killing of interface cells (interface cells [3]; 200 virus pfu/cell and CB1954 50 μM, cells from two revision surgery patients)	dose dependence of killing (interface cells [3]; CTL102 0-200 IU/cell, CB1954 0-50 μM, cells from both patients)	nausea (loosened hip prosthesis)	transduction of interface cells by Ad.CMV.LacZ (interface cells [4])	effect on viability of interface cells (interface cells [5])
NC(=O)c1cc(N2CC2)c([N+](=O)[O-])cc1[N+](=O)[O-] [CB1954, 5-(aziridin-1-yl)-2,4-dinitrobenzamide]	cells are not killed	well-tolerated in man	90%	virus and CB1954-dose dependent killing	1 WHO grade	–	–
CN(C(=O)CC(=O)N(C)c1c(I)c(C(=O)NC(CO)C(O)CO)c(I)c(C(=O)NC(CO)C(O)CO)c1I)c1c(I)c(C(=O)NC(CO)C(O)CO)c(I)c(C(=O)NC(CO)C(O)CO)c1I (stereo not shown) [iotrolan]	–	–	–	–	–	none of the cells were transduced	does not affect the viability of the cells at any concentration
